Test results from patent US7824853B2, “Complex comprising at least two biospecific elements separated by a nucleic acid linker e.g. for identification of drug delivery candidates combinatorial library of such complexes” (Avaris AB, priority 2002, dated 2010).

System: peripheral blood mononuclear cells, population with the characteristics of monocytes
Experiment: Monocyte binding assay (FACS, binding and uptake of fluorescent complexes)
Type: cell-based
Conditions: monocytic population; incubated one hour at +37° C., then trypsinisation; 6-FAM labelled 48-mer oligo
Source text: Oligonucleotides (48-mers) with recognition sites for 2 different peptide-nucleic-acid sequences and with a fluorescent label were designed and manufactured. Each binding site corresponds to 15 nucleotides. The 48-mer oligos contain in the 5′ end the fluorescent label, 6-FAM, followed by three thymidine residues as spacer. There is a single central target site (GGAAGGGCCGAGCGC, Seq. Id. No. 2) surrounded by two identical adjacent target sites (CAATCGGAACGGATC, Seq. Id. No. 1).
Peptide-nucleic-acid-linker3-peptide (=ligand) fusions were generated as described before (Brandén L J, Mohamed A J, Smith C I E. A peptide nucleic acid-nuclear localisation signal fusion that mediates nuclear transport of DNA. Nature Biotechnol 17: 784-787, 1999). […]
Peptide-nucleic-acid-linker3-peptide (=ligand) fusions were hybridised to oligonucleotides in order to generate the novel biomolecular complexes. […] Following the incubation cells were analysed in a fluorescent activated cell sorter (FACS SCAN, Becton Dickinson, Mountain View, Calif.).

## TAT (FE2): PNA-linker3-HIV TAT peptide (grkkrrqrrrppqc) fusion hybridised to central target site Seq. Id. No. 2 of the 48-mer oligo
  Percentage of fluorescent cells: 0.93%
